Laboratory results: patent publication US20240217960A1, “TRIAZINE DERIVATIVE AS COVALENT INHIBITORS OF PI3K” (UNIVERSITÄT BASEL, priority 2021, published 2024)
≈ marks a conversion by molar mass, not a printed value.

What was measured:
Experimental LogD = format: physicochemical; conditions: pH 7.4; 3 independent measurements
[1] = system: pSer473 of PKB/Akt in SKOV3 cells; assay: In Cell Western cellular PI3K signaling and IC50 determination; format: cell-based; conditions: Homo sapiens, SK-OV-3; SKOV3 cells; 2 or 3 independent measurements; read-out: IC50 pPKB (S473) SKOV3
Protocol: Protein phosphorylation was detected as follows: pSer473 of PKB/Akt with rabbit polyclonal antibody from Cell Signaling Technology (CST) (#4058) by In-Cell Western assays, where 1.2×10^4 SKOV3 cells/well in 96-well plates were plated (Cell Carrier, PerkinElmer) for 24 hours (37° C., 5% CO2), as described in Ref. ^25.

[2] = Intrinsic reactivity of the inhibitors (kchem) with βME measured with HPLC; format: physicochemical; conditions: 1 mM inhibitor + 600 mM βME, n = 3
PBS solubility = format: physicochemical; conditions: aqueous buffer, pH 7.4, 3 independent measurements
p110α (PI3Kα) = p110α (PI3Kα) (Homo sapiens, UniProt P42336); assay: Determination of kinetic constants (kinact, Ki) for p110α by LanthaScreen Technology; format: binding; conditions: for Ki: dissociation constant of the first reversible binding, read-out: Ki PI3Kα; for Ki / kinact: global fitting with KinTek; for kinact: maximum potential rate of covalent bond formation, read-out: kinact PI3Kα; for kinact/KI: read-out: kinact/Ki PI3Kα
Chain of p110α (PI3Kα) (P42336 whole entry): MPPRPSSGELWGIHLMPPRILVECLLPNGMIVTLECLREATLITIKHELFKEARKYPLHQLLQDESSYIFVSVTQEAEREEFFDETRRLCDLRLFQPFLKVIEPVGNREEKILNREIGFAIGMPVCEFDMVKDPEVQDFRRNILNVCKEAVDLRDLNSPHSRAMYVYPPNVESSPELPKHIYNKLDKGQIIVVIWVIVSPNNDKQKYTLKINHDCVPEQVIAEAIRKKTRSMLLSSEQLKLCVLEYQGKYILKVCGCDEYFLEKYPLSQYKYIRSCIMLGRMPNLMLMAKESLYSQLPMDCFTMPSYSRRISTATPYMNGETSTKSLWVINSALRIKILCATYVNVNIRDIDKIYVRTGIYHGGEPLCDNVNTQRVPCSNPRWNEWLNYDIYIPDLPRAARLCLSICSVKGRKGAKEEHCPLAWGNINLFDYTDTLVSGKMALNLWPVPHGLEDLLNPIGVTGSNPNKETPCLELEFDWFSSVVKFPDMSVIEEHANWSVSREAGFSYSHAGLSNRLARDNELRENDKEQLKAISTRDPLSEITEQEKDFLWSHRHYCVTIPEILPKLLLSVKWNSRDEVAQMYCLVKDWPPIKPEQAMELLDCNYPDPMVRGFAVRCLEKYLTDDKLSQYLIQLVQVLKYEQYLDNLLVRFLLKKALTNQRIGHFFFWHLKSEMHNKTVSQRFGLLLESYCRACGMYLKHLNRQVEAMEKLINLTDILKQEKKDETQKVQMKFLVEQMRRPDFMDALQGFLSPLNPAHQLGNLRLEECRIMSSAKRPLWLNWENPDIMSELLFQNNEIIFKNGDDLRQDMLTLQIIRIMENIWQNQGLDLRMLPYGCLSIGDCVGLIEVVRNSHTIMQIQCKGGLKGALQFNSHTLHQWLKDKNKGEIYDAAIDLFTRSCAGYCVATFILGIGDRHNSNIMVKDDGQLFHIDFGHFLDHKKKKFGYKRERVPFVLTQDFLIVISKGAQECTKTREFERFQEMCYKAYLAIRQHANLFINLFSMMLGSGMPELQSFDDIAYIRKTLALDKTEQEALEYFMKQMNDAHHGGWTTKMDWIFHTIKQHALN
Chain of p110α (PI3Kα) (P27986 whole entry partner): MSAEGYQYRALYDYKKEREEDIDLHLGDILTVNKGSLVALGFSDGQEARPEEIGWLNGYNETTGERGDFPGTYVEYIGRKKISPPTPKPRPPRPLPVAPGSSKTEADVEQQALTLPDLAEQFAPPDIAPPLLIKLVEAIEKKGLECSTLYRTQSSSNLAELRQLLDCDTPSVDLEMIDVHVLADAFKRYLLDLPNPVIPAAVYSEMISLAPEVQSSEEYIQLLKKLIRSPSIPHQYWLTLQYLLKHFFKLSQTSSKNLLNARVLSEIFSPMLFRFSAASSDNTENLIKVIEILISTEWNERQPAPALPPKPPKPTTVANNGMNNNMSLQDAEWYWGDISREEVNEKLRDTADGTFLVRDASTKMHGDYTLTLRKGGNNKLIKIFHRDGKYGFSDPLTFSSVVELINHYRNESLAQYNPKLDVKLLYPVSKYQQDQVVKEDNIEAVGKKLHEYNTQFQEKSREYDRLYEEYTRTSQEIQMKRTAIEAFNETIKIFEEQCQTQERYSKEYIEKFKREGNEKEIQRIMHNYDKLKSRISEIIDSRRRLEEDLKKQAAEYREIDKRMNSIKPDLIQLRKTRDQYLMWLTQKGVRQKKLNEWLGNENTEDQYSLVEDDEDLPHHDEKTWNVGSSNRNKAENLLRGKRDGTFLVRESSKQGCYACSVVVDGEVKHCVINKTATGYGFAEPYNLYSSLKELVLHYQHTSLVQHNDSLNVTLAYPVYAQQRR

logD (Experimental LogD)	solubility (PBS solubility) [µM]	SMILES	IC50 [1] [nM]	kchem (intrinsic reactivity of the inhibitors) [2] [M⁻¹ s⁻¹]	Ki (p110α (PI3Kα)) [nM]	kinact (p110α (PI3Kα)) [s⁻¹]	kinact/KI (p110α (PI3Kα)) [M⁻¹ s⁻¹]
2.66	46 (≈ 29.8 µg/mL)	C=CC(=O)N1CCC(Cc2cccc(C(=O)N3CCN(c4nc(-c5cnc(N)nc5C(F)F)nc(N5CCOCC5)n4)CC3)c2)CC1 [Compound 101, 1-(4-(3-(4-(4-(2-amino-4-(difluoromethyl)pyrimidin-5-yl)-6-morpholino-1,3,5-triazin-2-yl)piperazine-1-carbonyl)benzyl)piperidin-1-yl)prop-2-en-1-one]	43	0.00029	10.5	0.00015	14300
1.7	381 (≈ 230 µg/mL)	C=CC(=O)N1CCC(COCC(=O)N2CCN(c3nc(-c4cnc(N)nc4C(F)F)nc(N4CCOCC4)n3)CC2)CC1 [Compound 61, 1-(4-((2-(4-(4-(2-amino-4-(difluoromethyl)pyrimidin-5-yl)-6-morpholino-1,3,5-triazin-2-yl)piperazin-1-yl)-2-oxoethoxy)methyl)piperidin-1-yl)prop-2-en-1-one]	–	0.00029	–	–	–
3.96	10 (≈ 5.74 µg/mL)	CC(C)=CC(=O)CCC(=O)N1CCN(Cc2cc3nc(-c4cccc5[nH]ncc45)nc(N4CCOCC4)c3s2)CC1 [CNX-1351, 1-[4-[[2-(1H-indazol-4-yl)-4-(4-morpholinyl)thieno[3,2-d]pyrimidin-6-yl]methyl]-1-piperazinyl]-6-methyl-5-heptene-1,4-dione, reference compound]	–	0.000222	–	–	–
–	–	C/C=C/C(=O)CCCCCC(=O)N1CCN(c2nc(-c3cnc(N)nc3C(F)F)nc(N3CCOCC3)n2)CC1 [Compound 21, (E)-1-(4-(4-(2-amino-4-(difluoromethyl)pyrimidin-5-yl)-6-morpholino-1,3,5-triazin-2-yl)piperazin-1-yl)dec-8-ene-1,7-dione]	44.5	0.0632	11.7	0.016	1.27e+06
–	–	C=CC(=O)N1CCC(C(=O)NCCC(=O)N2CCN(c3nc(-c4cnc(N)nc4C(F)F)nc(N4CCOCC4)n3)CC2)CC1 [Compound 48, 1-acryloyl-N-(3-(4-(4-(2-amino-4-(difluoromethyl)pyrimidin-5-yl)-6-morpholino-1,3,5-triazin-2-yl)piperazin-1-yl)-3-oxopropyl)piperidine-4-carboxamide]	664	0.000452	14.1	0.000253	18000
1.4	393 (≈ 236 µg/mL)	C=CC(=O)N1CCC(C(=O)NCCN2CCN(c3nc(-c4cnc(N)nc4C(F)F)nc(N4CCOCC4)n3)CC2)CC1 [Compound 62, 1-acryloyl-N-(2-(4-(4-(2-amino-4-(difluoromethyl)pyrimidin-5-yl)-6-morpholino-1,3,5-triazin-2-yl)piperazin-1-yl)ethyl)piperidine-4-carboxamide]	82	0.000518	16.2	0.000187	11600
–	–	C=CC(=O)N1CCC(C(=O)NCCCC(=O)N2CCN(c3nc(-c4cnc(N)nc4C(F)F)nc(N4CCOCC4)n3)CC2)CC1 [Compound 51, 1-acryloyl-N-(4-(4-(4-(2-amino-4-(difluoromethyl)pyrimidin-5-yl)-6-morpholino-1,3,5-triazin-2-yl)piperazin-1-yl)-4-oxobutyl)piperidine-4-carboxamide]	686	0.000437	10.7	0.000195	18800
–	–	C=CC(=O)N1CCC(C(=O)N(C)CCC(=O)N2CCN(c3nc(-c4cnc(N)nc4C(F)F)nc(N4CCOCC4)n3)CC2)CC1 [Compound 57, 1-acryloyl-N-(3-(4-(4-(2-amino-4-(difluoromethyl)pyrimidin-5-yl)-6-morpholino-1,3,5-triazin-2-yl)piperazin-1-yl)-3-oxopropyl)-N-methylpiperidine-4-carboxamide]	250	0.000388	14.6	0.000378	26100

SMILES	logD (Experimental LogD)	solubility (PBS solubility) [µM]	IC50 [1] [nM]	kchem (intrinsic reactivity of the inhibitors) [2] [M⁻¹ s⁻¹]	Ki (p110α (PI3Kα)) [nM]	kinact (p110α (PI3Kα)) [s⁻¹]	kinact/KI (p110α (PI3Kα)) [M⁻¹ s⁻¹]
C=CC(=O)N1CCC(CCCC(=O)N2CCN(c3nc(-c4cnc(N)nc4C(F)F)nc(N4CCOCC4)n3)CC2)CC1 [Compound 41, 4-(1-acryloylpiperidin-4-yl)-1-(4-(4-(2-amino-4-(difluoromethyl)pyrimidin-5-yl)-6-morpholino-1,3,5-triazin-2-yl)piperazin-1-yl)butan-1-one]	2.67	243 (≈ 146 µg/mL)	–	0.000225	–	–	–
